Laboratory results from patent US11865126B2, “Method for treating anxiety disorders, headache disorders, and eating disorders with psilocybin” (priority 2019, dated 2024).

Tested on: healthy subjects
Assay: Reading the Mind in the Eyes Test (RMET)
Type: in vivo, human
Excerpt: In some embodiments, Reading the Mind in the Eyes Test (RMET) is utilized to evaluate the safety and/or efficacy of psilocybin. The RMET has 36 items, in which subjects are presented with a photograph of the eyes region of the face and must choose 1 of 4 adjectives or phrases to describe the mental state of the person pictured. A definition handout is provided at the beginning of the task and a practice item precedes the first trial.
The following list of outcome measures are non-exhaustive. • a. The short-term change from Baseline (Day −1 [Visit 2]) to Day 7 (Visit 5) in cognitive measures of attention, spatial and working memory and executive function was measured by a composite score of the CANTAB Panel (Spatial Working Memory [SWM], Rapid Visual Information Processing [RVP], Paired Associates Learning [PAL]). • b. The short-term change from Baseline (Day −1 [Visit 2]) to Day 7 (Visit 5) in Social Cognition Panel scales (Pictorial Empathy Test [PET], Reading the Mind in the Eyes Test [RMET], Toronto Empathy Questionnaire [TEQ], Social Value Orientation [SVO], Scale of Social Responsibility [SSR]). • c. The change from Baseline (Day −1 [Visit 2]) to Day 28 (Visit 6) in cognitive measures of attention, spatial and working memory and executive function as measured by a composite score of the CANTAB Panel (SWM, RVP, PAL). • d. The long-term change from Baseline (Day −1 [Visit 2]) to Day 84 (Visit 7) in Social Cognition Panel scales (PET, RMET, TEQ, SVO, SSR). • e. Dose-related differences between cognitive effects of psilocybin at Baseline (Day −1 [Visit 2]), Day 7 (Visit 5) and Day 28 (Visit 6), as measured by a composite score of the CANTAB Panel (SWM, RVP, PAL). • f. Dose-related differences between psychological effects of psilocybin at Baseline (Day −1 [Visit 2]), Day 7 (Visit 5) and Day 84 (Visit 7), as measured by Social Cognition Panel scales (PET, RMET, TEQ, SVO, SSR). • g. Differences in cognitive effects of psilocybin between psilocybin-naïve and experienced subjects at Baseline (Day −1 [Visit 2]), Day 7 (Visit 5) and Day 28 (Visit 6), as measured by a composite score of the CANTAB Panel (SWM, RVP, PAL). • h. Differences in Positive and Negative Affect Schedule (PANAS) after study drug administration on Day 0 (Visit 3). • i. Differences between psilocybin and placebo in the Emotion Recognition Test (ERT), Intra-Extra Dimensional Set Shift (IED), One Touch Stockings (OTS), Verbal Fluency and Digit Span Forward at Day 7 (Visit 5). • j. A composite score of the CANTAB Panel, including the following tests: • i. Spatial Working Memory (SWM) (performed at Visit 2, Visit 5, and Visit 6). • ii. Rapid Visual Information Processing (RVP) (performed at Visit 2, Visit 5, and Visit 6). • iii. Paired Associates Learning (PAL) (performed at Visit 2, Visit 5, and Visit 6). • k. Cognitive Flexibility Panel • i. Emotion Recognition Task (ERT) (performed at Visit 5). • ii. Intra-Extra Dimensional Set Shift (IED) (performed at Visit 5). • iii. One Touch Stockings (OTS) (performed at Visit 5). • iv. Verbal Fluency (performed at Visit 5). • v. Digit Span Forward (performed at Visit 5). • l. Five Dimension Altered States of Consciousness questionnaire (5D-ASC) (performed at Visit 3). • m. PANAS (performed at Visit 2 and Visit 3). • n. NEO-Five Factor Inventory (NEO-FFI) (performed at Visit 2, Visit 5, and Visit 7). • o. Symptom Checklist-90 item (SCL-90) (performed at Visit 2, Visit 5, and Visit 7). • p. Life Changes Inventory (LCI): The LCI measures changes in attitudes and values after near-death experiences often used to evaluate personal transformation following spiritually oriented experiences and practices. (performed at Visit 5 and Visit 7). • q. Social Cognition Panel scales • i. Pictorial Empathy Test (PET) (performed at Visit 2, Visit 5, and Visit 7). • ii. Reading the Mind in the Eyes Test (RMET) (performed at Visit 2, Visit 5, and Visit 7). • iii. Social Value Orientation (SVO) (performed at Visit 2, Visit 5, and Visit 7). • iv. […]

CN(C)CCc1c[nH]c2cccc(OP(=O)(O)O)c12 [psilocybin]
RMET change from baseline, LS mean difference Psilocybin 10 mg - Placebo (Day 7, MMRM): 0.1 | RMET change from baseline, LS mean difference Psilocybin 25 mg - Placebo (Day 7, MMRM): 0.2 | RMET change from baseline, LS mean difference Psilocybin 25 mg-10 mg (Day 7, MMRM): 0.0 | RMET change from baseline, LS mean difference Psilocybin 10 mg - Placebo (Day 84, MMRM): 0.2 | RMET change from baseline, LS mean difference Psilocybin 25 mg - Placebo (Day 84, MMRM): 0.5 | RMET change from baseline, LS mean difference Psilocybin 25 mg-10 mg (Day 84, MMRM): 0.3
